Experimental data from patent US20090048287A1, “Compositions useful for treating gastrointestinal motility disorders” (priority 2003, published 2009).

Assays:
Assay type in all cases: in vivo, cat
[1] = test system: feline model of GERD; assay: Lower esophageal pH monitoring during gastroesophageal reflux in sedated cats; details: naive, MKC-733 1.0 and 10 mg/kg i.v.
Procedure: (§1) Experiments to determine the effects of MKC-733, omeprazole or the combination of MKC-733 and omeprazole on LESP, lower esophageal pH, esophageal motility and TLESR, in a feline model of GERD were conducted.
An Orion II pH probe (Medical Measurements Systems), running along with the manometric catheter, was positioned with one pH measuring site in the stomach and a second pH measuring site in the distal esophagus. pH was monitored and recorded simultaneously with the manometric recordings using a computerized data acquisition system (Medical Measurements Systems).
The pH in the lower esophagus was monitored at the same time as the manometric pressure. The pH was recorded for each measurement regimen set forth in Experiments 1 and 2.
All animals were acclimated to the facility for one week prior to testing. […]
(§2) Following instrumentation, baseline values of LESP, esophageal pH, esophageal peristalsis and TLESR were measured as described above. […]
Data is presented as mean±SEM. […] Significance of LESP treatment effects within and between experiments was evaluated using 2-Way repeated measures ANOVA. […] Significance of treatment effects for pH was evaluated using a nonparametric one-way repeated measures ANOVA (Friedman Test). […]
In 2 of the 5 animals, the 10 mg/kg dose was not administered. In 1 of the 3 remaining animals, pH was also not recorded following the […] dose.

[2] = test system: feline model of GERD; assay: Esophageal motility: peristaltic contraction amplitude after spontaneous dry swallows and balloon distension in cats
Procedure: as §1
(§3) Each animal was fitted with a water-perfused sleeve catheter (Andorfer Inc, Greendale, Wis.) attached via pressure transducers to a minimally compliant hydrolytic pump. The sleeve was positioned within the LES with the tip placed into the stomach. The total distance between recording site 0 (tip in the stomach) and recording site 2 was 4 cm. This 4 cm region was referred to as site 1 and the pressure was simultaneously recorded along this region. […] Throughout the experiment, the output from the pressure transducers was manometrically recorded using the PowerLab Chart 5 data acquisition program (ADInstruments, Colorado Springs, Colo.) on a computer using a Windows XP operating system.
The manometric pressure recordings at sites 1-5 of the sleeve catheter were recorded during primary peristalsis induced by three spontaneous dry swallows (SDS) and secondary peristalsis induced by 3 balloon distensions (BD; distension of a balloon catheter 2 cm in diameter for 5 second placed in the mid portion of the esophagus).
Esophageal motility was characterized based on the amplitude of the contractions recorded at sites 2-5 of the catheter in response to three SDS and three BD. […]

[3] = test system: feline model of GERD; assay: Lower esophageal sphincter pressure (LESP), manometric recording in sedated cats; details: MKC-733 1.0 and 10 mg/kg i.v., naive and omeprazole pretreated, FIG. 2
Procedure: as §1
The cats used in the experiments were fasted overnight and sedated with ketamine (15-20 mg/kg intramuscular injection). A butterfly catheter filled with heparinized sterile saline was placed into the brachial vein and used for supplemental ketamine anesthesia and drug administration.
as §3, with “The sleeve was positioned within the LES with the tip placed into the stomach. The total distance between recording site 0 (tip in the stomach) and recording site 2 was 4 cm.” left out
The manometric pressure recording at site 1 of the catheter provided the baseline (at rest) LESP for each animal. The baseline LESP was recorded for each measurement regimen set forth in Experiments 1 and 2 below, and then compared. […]
as §2

O=C(N[C@H]1CN2CCC1CC2)c1c[nH]c2ccsc2c1=O [MKC-733, (R)—N-1-azabicyclo[2.2.2]oct-3-yl-4,7-dihydro-7-oxothieno[3,2-b]pyridine-6-carboxamide]
percentage of time during gastroesophageal (GER) episodes when lower esophageal pH was greater than 4.0 ([1]; FIG. 3): positive trend that appeared dose-dependent | nadir pH values during GER ([1]; FIG. 4): did not effect nadir pH values | oral-to-aboral peristaltic contraction amplitude ([2]; MKC-733 1.0 and 10 mg/kg i.v., normalized to vehicle, FIG. 5): dose-dependent significant enhancement | difference in effect on peristaltic contraction amplitude between naive cats and those pretreated with omeprazole ([2]; MKC-733 i.v., data not shown): no significant differences | LESP normalized to vehicle controls within experiments [3]: statistically significant dose-dependent increase in LESP
